Test results from patent publication US9976141B2, “Compositions and methods for inhibiting gene expression of Hif2alpha” (Arrowhead Madison Inc., priority 2015, dated 2018).

Each substance was assayed on human (tumor) Hif2α (EPAS1) mRNA (assay: Hif2α knockdown in orthotopic RCC tumor bearing mice, single injection of RNAi trigger-delivery polymer conjugate, RT-qPCR (Table 7)). Conditions: RNAi trigger 50 μg, polymer 064 125 μg; single tail vein injection; relative to isotonic glucose.
Format: in vivo
Method in brief: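 A single intravenous dose of Hif2α RNAi trigger–delivery polymer conjugate, or isotonic glucose vehicle, was given to nude mice with subcapsular A498-SEAP renal tumours (about 5–6 weeks old). At the indicated time, tumour RNA was assayed by biplex TaqMan qPCR against CycA, and relative expression was calculated by ΔΔCT versus vehicle.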
With “AD03189 (antisense UGUAAAACAAUUGUGUACUUUAA; sense AAAGUACACAAUUGUUUUACA; Hif2alpha RNAi agent antisense strand; modified_base 2,4,6,8,10,14,16,18 /mod_base = “2′-deoxy-2′-fluoro corresponding nucleoside”; modified_base 1,3,5,7,9,11,12,13,15,17,19,20,21,22,23 /mod_base = “2′-O-methyl corresponding nucleoside”; modified_base 2,3,22,23 /mod_base = “5′-phosphorothioate corresponding nucleotide”; Hif2alpha RNAi agent sense strand; modified_base 3,5,7,9,10,11,13,15,19 /mod_base = “2′-deoxy-2′-fluoro corresponding nucleoside”; modified_base 1,2,4,6,8,12,14,16,17,18,20 /mod_base = “2′-O-methyl corresponding nucleoside”; modified_base 21 /mod_base = “3′-3′-linked nucleoti)” the “Relative Expression day 4 (Hif2α mRNA in kidney tumor)” value was 0.245.
With “AD03190 (antisense AGUAAAACAAUUGUGUACUUUAA; sense AAAGUACACAAUUGUUUUACT; Hif2alpha RNAi agent antisense strand; modified_base 2,4,6,8,10,14,16,18 /mod_base = “2′-deoxy-2′-fluoro corresponding nucleoside”; modified_base 1,3,5,7,9,11,12,13,15,17,19,20,21,22,23 /mod_base = “2′-O-methyl corresponding nucleoside”; modified_base 2,3,22,23 /mod_base = “5′-phosphorothioate corresponding nucleotide”; Hif2alpha RNAi agent sense strand; modified_base 3,5,7,9,10,11,13,15,19 /mod_base = “2′-deoxy-2′-fluoro corresponding nucleoside”; modified_base 1,2,4,6,8,12,14,16,17,18,20 /mod_base = “2′-O-methyl corresponding nucleoside”; modified_base 21 /mod_base = “3′-3′-linked nucleoti)” the “Relative Expression day 4 (Hif2α mRNA in kidney tumor)” value was 0.269.
With “AD03191 (antisense AGUAAAACAAUUGUGUACUUUAA; sense AAAGUACACAAUUGUUUUACT; Hif2alpha RNAi agent antisense strand; modified_base 2,4,6,8,10,14,16,18 /mod_base = “2′-deoxy-2′-fluoro corresponding nucleoside”; modified_base 1,3,5,7,9,11,12,13,15,17,19,20,21,22,23 /mod_base = “2′-O-methyl corresponding nucleoside”; modified_base 2,3,22,23 /mod_base = “5′-phosphorothioate corresponding nucleotide”; Hif2alpha RNAi agent sense strand; modified_base 7,9,10,11 /mod_base = “2′-deoxy-2′-fluoro corresponding nucleoside”; modified_base 1,2,3,4,5,6,8,12,13,14,15,16,17,18,19,20 /mod_base = “2′-O-methyl corresponding nucleoside”; modified_base 21 /mod_base = “3′-3′-linked nucleoti)” the “Relative Expression day 4 (Hif2α mRNA in kidney tumor)” value was 0.307.
In the case of “AD03192 (antisense AGUAAAACAAUUGUGUACUUUAA; sense AAAGUACACAAUUGUUUUACT; Hif2alpha RNAi agent antisense strand; modified_base 2,4,6,8,10,14,18 /mod_base = “2′-deoxy-2′-fluoro corresponding nucleoside”; modified_base 1,3,5,7,9,11,12,13,15,16,17,19,20,21,22,23 /mod_base = “2′-O-methyl corresponding nucleoside”; modified_base 2,3,22,23 /mod_base = “5′-phosphorothioate corresponding nucleotide”; Hif2alpha RNAi agent sense strand; modified_base 5,7,9,10,11,13,15 /mod_base = “2′-deoxy-2′-fluoro corresponding nucleoside”; modified_base 1,2,3,4,6,8,12,14,16,17,18,19,20 /mod_base = “2′-O-methyl corresponding nucleoside”; modified_base 21 /mod_base = “3′-3′-linked nucleoti)”, the “Relative Expression day 4 (Hif2α mRNA in kidney tumor)” value is reported as 0.286.
For “AD03193 (antisense AGUAAAACAAUUGUGUACUUUAA; sense AAAGUACACAAUUGUUUUACT; Hif2alpha RNAi agent antisense strand; modified_base 2,4,6,8,14 /mod_base = “2′-deoxy-2′-fluoro corresponding nucleoside”; modified_base 1,3,5,7,9,10,11,12,13,15,16,17,18,19,20,21,22,23 /mod_base = “2′-O-methyl corresponding nucleoside”; modified_base 2,3,22,23 /mod_base = “5′-phosphorothioate corresponding nucleotide”; Hif2alpha RNAi agent sense strand; modified_base 9,10,11 /mod_base = “2′-deoxy-2′-fluoro corresponding nucleoside”; modified_base 1,2,3,4,5,6,7,8,12,13,14,15,16,17,18,19,20 /mod_base = “2′-O-methyl corresponding nucleoside”; modified_base 21 /mod_base = “3′-3′-linked nucleoti)”, the “Relative Expression day 4 (Hif2α mRNA in kidney tumor)” value was 0.275.
In the case of “AD03253 (antisense UUUCAUGAAAUCGUUACGUUG; sense ACGUAACGAUUUCAUGAAAT; Hif2alpha RNAi agent antisense strand; modified_base 2,4,6,8,14 /mod_base = “2′-deoxy-2′-fluoro corresponding nucleoside”; modified_base 1,3,5,7,9,10,11,12,13,15,16,17,18,19,20,21 /mod_base = “2′-O-methyl corresponding nucleoside”; modified_base 2,3,20,21 /mod_base = “5′-phosphorothioate corresponding nucleotide”; Hif2alpha RNAi agent sense strand; modified_base 7,8,9 /mod_base = “2′-deoxy-2′-fluoro corresponding nucleoside”; modified_base 1,2,3,4,5,6,10,11,12,13,14,15,16,17,18,19 /mod_base = “2′-O-methyl corresponding nucleoside”; modified_base 20 /mod_base = “3′-3′-linked nucleotide”; modi)”, the “Relative Expression day 4 (Hif2α mRNA in kidney tumor)” value is reported as 0.188.
In the case of “AD03254 (antisense AUUCAUGAAAUCGUUACGUUG; sense ACGUAACGAUUUCAUGAAUT; Hif2alpha RNAi agent antisense strand; modified_base 2,4,6,8,14 /mod_base = “2′-deoxy-2′-fluoro corresponding nucleoside”; modified_base 1,3,5,7,9,10,11,12,13,15,16,17,18,19,20,21 /mod_base = “2′-O-methyl corresponding nucleoside”; modified_base 2,3,20,21 /mod_base = “5′-phosphorothioate corresponding nucleotide”; Hif2alpha RNAi agent sense strand; modified_base 7,8,9 /mod_base = “2′-deoxy-2′-fluoro corresponding nucleoside”; modified_base 1,2,3,4,5,6,10,11,12,13,14,15,16,17,18,19 /mod_base = “2′-O-methyl corresponding nucleoside”; modified_base 20 /mod_base = “3′-3′-linked nucleotide”; modi)”, the “Relative Expression day 4 (Hif2α mRNA in kidney tumor)” value is reported as 0.295.
For “AD03255 (antisense UUUCAUGAAAUCGUUACGUUGAT; sense AACGUAACGAUUUCAUGAAAT; Hif2alpha RNAi agent antisense strand; modified_base 2,4,6,8,14 /mod_base = “2′-deoxy-2′-fluoro corresponding nucleoside”; modified_base 1,3,5,7,9,10,11,12,13,15,16,17,18,19,20,21,22 /mod_base = “2′-O-methyl corresponding nucleoside”; modified_base 23 /mod_base = “3′-3′-linked nucleotide”; modified_base 2,3,22,23 /mod_base = “5′-phosphorothioate corresponding nucleotide”; Hif2alpha RNAi agent sense strand; modified_base 8,9,10 /mod_base = “2′-deoxy-2′-fluoro corresponding nucleoside”; modified_base 1,2,3,4,5,6,7,11,12,13,14,15,16,17,18,19,20 /mod_base = “2′-O-methyl corresponding nucleoside”)”, the “Relative Expression day 4 (Hif2α mRNA in kidney tumor)” value was 0.264.
With “AD03256 (antisense AUUCAUGAAAUCGUUACGUUGAT; sense AACGUAACGAUUUCAUGAAUT; Hif2alpha RNAi agent antisense strand; modified_base 2,4,6,8,14 /mod_base = “2′-deoxy-2′-fluoro corresponding nucleoside”; modified_base 1,3,5,7,9,10,11,12,13,15,16,17,18,19,20,21,22 /mod_base = “2′-O-methyl corresponding nucleoside”; modified_base 23 /mod_base = “3′-3′-linked nucleotide”; modified_base 2,3,22,23 /mod_base = “5′-phosphorothioate corresponding nucleotide”; Hif2alpha RNAi agent sense strand; modified_base 8,9,10 /mod_base = “2′-deoxy-2′-fluoro corresponding nucleoside”; modified_base 1,2,3,4,5,6,7,11,12,13,14,15,16,17,18,19,20 /mod_base = “2′-O-methyl corresponding nucleoside”)” the “Relative Expression day 4 (Hif2α mRNA in kidney tumor)” value was 0.333.
